Columns and labels:
[1] = molecular target: Recombinant human DDR1 (aa440-876 containing a GST tag) (Homo sapiens (Human), UniProt Q08345); assay: LanthaScreen Eu Kinase Binding Assay DDR1; details: Kinase Tracer 178 5 nM, at least two independent replicates; for IC50: read-out: DDR1 pIC50 (converted)
Summary of the method: (§1)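 DDR1 (2.5 nM) or DDR2 (1.75 nM) was preincubated with compound 30 min at RT in 50 mM HEPES pH 7.3, 10 mM MgCl2, 1 mM EGTA, 0.01% Tween. Eu-anti-GST and Tracer 178 were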

[2] = molecular target: Recombinant human DDR2 (aa427-855 containing a GST tag) (Homo sapiens (Human), UniProt Q16832); assay: LanthaScreen Eu Kinase Binding Assay DDR2; details: Kinase Tracer 178 10 nM, at least two independent replicates; for IC50: read-out: DDR2 pIC50 (converted)
Recombinant human DDR2 (aa427-855 containing a GST tag), sequence (Q16832 427-855): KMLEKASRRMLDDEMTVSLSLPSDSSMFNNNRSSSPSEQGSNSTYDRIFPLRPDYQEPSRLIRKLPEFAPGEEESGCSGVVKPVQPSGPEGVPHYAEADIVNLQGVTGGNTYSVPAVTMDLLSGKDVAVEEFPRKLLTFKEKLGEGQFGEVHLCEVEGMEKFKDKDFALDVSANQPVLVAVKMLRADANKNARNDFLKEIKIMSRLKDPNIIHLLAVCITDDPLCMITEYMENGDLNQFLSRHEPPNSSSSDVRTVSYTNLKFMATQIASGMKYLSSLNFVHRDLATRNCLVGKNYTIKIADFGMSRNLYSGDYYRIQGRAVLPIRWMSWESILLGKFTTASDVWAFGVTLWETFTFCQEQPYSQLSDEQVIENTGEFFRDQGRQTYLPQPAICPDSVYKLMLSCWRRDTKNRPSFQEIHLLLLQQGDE
Summary of the method: as §1

Recombinant human DDR1 (aa440-876 containing a GST tag), sequence (Q08345 other isoform, or with tags, fused parts or gaps): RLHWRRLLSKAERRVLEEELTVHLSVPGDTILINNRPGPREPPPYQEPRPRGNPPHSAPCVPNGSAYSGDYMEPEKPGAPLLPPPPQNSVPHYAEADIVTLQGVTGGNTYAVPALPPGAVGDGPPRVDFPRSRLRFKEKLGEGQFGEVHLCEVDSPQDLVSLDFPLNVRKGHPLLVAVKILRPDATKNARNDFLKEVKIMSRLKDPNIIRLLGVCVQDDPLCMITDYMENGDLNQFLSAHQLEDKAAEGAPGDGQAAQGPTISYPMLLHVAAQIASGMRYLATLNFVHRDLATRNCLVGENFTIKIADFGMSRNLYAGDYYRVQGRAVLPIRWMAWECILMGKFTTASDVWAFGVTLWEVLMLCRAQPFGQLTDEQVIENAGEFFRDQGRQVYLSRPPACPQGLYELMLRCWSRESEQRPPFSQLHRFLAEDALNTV

Structure (SMILES)	IC50 [1]	DDR2 pIC50 [2]	IC50 [2]	DDR1 pIC50 [1]
Cn1ncc2c(-c3ccc(-n4c(=O)n(CC(=O)N5CCCC[C@@H]5C(F)(F)F)c5ccccc54)cc3)cncc21 [Example 30, 1-[4-(1-methylpyrazolo[3,4-c]pyridin-4-yl)phenyl]-3-[2-oxo-2-[(2R)-2-(trifluoromethyl)-1-piperidyl]ethyl]benzimidazol-2-one]	100 to 1000 nM	D (pIC50≤6)		
Cc1cccc2c1n(-c1ccc(-c3cncc4c3cnn4C)nc1)c(=O)n2CC(=O)N1CCOC(C(F)(F)F)C1 (stereo in doubt) [Example 55, 4-methyl-3-[6-(1-methylpyrazolo[3,4-c]pyridin-4-yl)-3-pyridyl]-1-[2-oxo-2-[(2S)-2-trifluoromethyl)morpholin-4-yl]ethyl]benzimidazol-2-one]	< 10 nM		100 to 1000 nM	
Cc1cccc2c1n(-c1ccc(-c3cncc4c3cnn4C)cn1)c(=O)n2CC(=O)N[C@@H](C)C(F)(F)F [Example 64, 2-[4-methyl-3-[5-(1-methylpyrazolo[3,4-c]pyridin-4-yl)-2-pyridyl]-2-oxo-benzimidazol-1-yl]-N-[(1S)-2,2,2-trifluoro-1-methyl-ethyl]acetamide]		D (pIC50≤6)		B (8≥pIC50>7)
Cc1cc(-c2cncc3[nH]ncc23)ncc1-n1c(=O)n(CC(=O)NCC(F)(F)F)c2cccc(C)c21 [Example 93, 2-[4-methyl-3-[4-methyl-6-(1H-pyrazolo[3,4-c]pyridin-4-yl)-3-pyridyl]-2-oxo-benzimidazol-1-yl]-N-(2,2,2-trifluoroethyl)acetamide]			100 to 1000 nM	A (pIC50>8)
Cc1cccc2c1n(-c1cnc(-c3cncc4c3cnn4C)cn1)c(=O)n2CC(=O)N[C@@H](C)C(F)(F)F [Example 49, 2-[4-methyl-3-[5-(1-methylpyrazolo[3,4-c]pyridin-4-yl)pyrazin-2-yl]-2-oxo-benzimidazol-1-yl]-N-[(1S)-2,2,2-trifluoro-1-methyl-ethyl]acetamide]			10 to 100 nM	A (pIC50>8)
Cn1ncc2c(-c3ccc(-n4c(=O)n(CC(=O)N5CCOC(C(F)(F)F)C5)c5ccccc54)cc3)cncc21 (stereo not shown) [Example 24, 1-[4-(1-methylpyrazolo[3,4-c]pyridin-4-yl)phenyl]-3-[2-oxo-2-[2-(trifluoromethyl)morpholin-4-yl]ethyl]benzimidazol-2-one]		D (pIC50≤6)		A (pIC50>8)
Cc1cccc2c1n(-c1ccc(-c3cncc4c3cnn4C)nc1)c(=O)n2CC(=O)N1CCOC[C@H]1C(F)(F)F [Example 53, 4-methyl-3-[6-(1-methylpyrazolo[3,4-c]pyridin-4-yl)-3-pyridyl]-1-[2-oxo-2-[(3S)-3-(trifluoromethyl)morpholin-4-yl]ethyl]benzimidazol-2-one]			10 to 100 nM	A (pIC50>8)
Cc1cccc2c1n(-c1ccc(-c3cncc4[nH]ncc34)nc1)c(=O)n2CC(=O)N[C@@H](C)C(F)(F)F [Example 68, 2-[4-methyl-2-oxo-3-[6-(1H-pyrazolo[3,4-c]pyridin-4-yl)-3-pyridyl]benzimidazol-1-yl]-N-[(1S)-2,2,2-trifluoro-1-methyl-ethyl]acetamide]			10 to 100 nM	A (pIC50>8)
Cc1cc(-n2c(=O)n(CC(=O)NCC(F)(F)F)c3ccccc32)ccc1-c1cncc2c1cnn2C [Example 5, 2-[3-[3-methyl-4-(1-methylpyrazolo[3,4-c]pyridin-4-yl)phenyl]-2-oxobenzimidazol-1-yl]-N-(2,2,2-trifluoroethyl)acetamide]		D (pIC50≤6)		D (pIC50≤6)
Cn1ncc2c(-c3ccc(-n4c(=O)n(CC(=O)N5CCCC[C@H]5C(F)(F)F)c5ccccc54)cc3)cncc21 [Example 32, 1-[4-(1-methylpyrazolo[3,4-c]pyridin-4-yl)phenyl]-3-[2-oxo-2-[(2S)-2-(trifluoromethyl)-1-piperidyl]ethyl]benzimidazol-2-one]			100 to 1000 nM	A (pIC50>8)
Cn1ncc2c(-c3ccc(-n4c(=O)n(CC(=O)NC5CC5(F)F)c5ccccc54)cc3)cncc21 (stereo not shown) [Example 36, N-(2,2-difluorocyclopropyl)-2-[3-[4-(1-methylpyrazolo[3,4-c]pyridin-4-yl)phenyl]-2-oxobenzimidazol-1-yl]acetamide]	100 to 1000 nM	D (pIC50≤6)		
Cc1cc(-n2c(=O)n(CC(=O)NCC(F)(F)F)c3cccc(C)c32)cnc1-c1cncc2[nH]ncc12 [Example 99, 2-[4-methyl-3-[5-methyl-6-(1H-pyrazolo[3,4-c]pyridin-4-yl)-3-pyridyl]-2-oxo-benzimidazol-1-yl]-N-(2,2,2-trifluoroethyl)acetamide]	100 to 1000 nM	D (pIC50≤6)		
O=C(Cn1c(=O)n(-c2ccc(-c3cncc4[nH]ncc34)cc2)c2ccccc21)NCC(F)(F)F [Example 41, 2-[2-oxo-3-[4-(1H-pyrazolo[3,4-c]pyridin-4-yl)phenyl]benzimidazol-1-yl]-N-(2,2,2-trifluoroethyl)acetamide]	10 to 100 nM		100 to 1000 nM	
Cn1ncc2c(-c3ccc(-n4c(=O)n(CC(=O)NCC(F)(F)F)c5ccccc54)cc3)cncc21 [Example 1, 2-[3-[4-(1-methylpyrazolo[3,4-c]pyridin-4-yl)phenyl]-2-oxobenzimidazol-1-yl]-N-(2,2,2-trifluoroethyl)acetamide]	10 to 100 nM	D (pIC50≤6)		
Cc1cccc2c1n(-c1ncc(-c3cncc4[nH]ncc34)cn1)c(=O)n2CC(=O)N[C@@H](C)C(F)(F)F [Example 73, 2-[4-methyl-2-oxo-3-[5-(1H-pyrazolo[3,4-c]pyridin-4-yl)pyrimidin-2-yl]benzimidazol-1-yl]-N-[(1S)-2,2,2-trifluoro-1-methyl-ethyl]acetamide]			100 to 1000 nM	A (pIC50>8)
CC(NC(=O)Cn1c(=O)n(-c2ccc(-c3cncc4c3cnn4C)cc2)c2ccccc21)C(F)(F)F (stereo not shown) [Example 17, 2-[3-[4-(1-methylpyrazolo[3,4-c]pyridin-4-yl)phenyl]-2-oxobenzimidazol-1-yl]-N-(2,2,2-trifluoro-1-methylethyl)acetamide]	10 to 100 nM		100 to 1000 nM	
Cc1nc(-c2cncc3c2cnn3C)ccc1-n1c(=O)n(CC(=O)N[C@H](C)C(F)(F)F)c2cccc(C)c21 [Example 112]	10 to 100 nM		100 to 1000 nM	
Cc1cc(-n2c(=O)n(CC(=O)NCC(F)(F)F)c3cccc(C)c32)cnc1-c1cncc2c1cnn2C [Example 97, 2-[4-methyl-3-[5-methyl-6-(1-methylpyrazolo[3,4-c]pyridin-4-yl)-3-pyridyl]-2-oxo-benzimidazol-1-yl]-N-(2,2,2-trifluoroethyl)acetamide]		D (pIC50≤6)		D (pIC50≤6)
Cn1ncc2c(-c3ccc(-n4c(=O)n(CC(=O)NCC(F)(F)F)c5ccccc54)cn3)cncc21 [Example 91, 2-[3-[6-(1-methylpyrazolo[3,4-c]pyridin-4-yl)-3-pyridyl]-2-oxo-benzimidazol-1-yl]-N-(2,2,2-trifluoroethyl)acetamide]		D (pIC50≤6)		C (7≥pIC50>6)
Cc1cccc2c1n(-c1ccc(-c3cncc4c3cnn4C)nc1)c(=O)n2CC(=O)N[C@@H](C)C(F)(F)F [Example 52, 2-[4-methyl-3-[6-(1-methylpyrazolo[3,4-c]pyridin-4-yl)-3-pyridyl]-2-oxo-benzimidazol-1-yl]-N-[(1S)-2,2,2-trifluoro-1-methyl-ethyl]acetamide]			10 to 100 nM	A (pIC50>8)
Cn1ncc2c(-c3cc(F)c(-n4c(=O)n(CC(=O)NCC(F)(F)F)c5ccccc54)c(F)c3)cncc21 [Example 89, 2-[3-[2,6-difluoro-4-(1-methylpyrazolo[3,4-c]pyridin-4-yl)phenyl]-2-oxo-benzimidazol-1-yl]-N-(2,2,2-trifluoroethyl)acetamide]	10 to 100 nM	D (pIC50≤6)		
Cn1ncc2c(-c3ccc(-n4c(=O)n(CC(=O)N5CC(C(F)(F)F)C5)c5ccccc54)cc3)cncc21 [Example 34, 1-[4-(1-methylpyrazolo[3,4-c]pyridin-4-yl)phenyl]-3-[2-oxo-2-[3-(trifluoromethyl)azetidin-1-yl]ethyl]benzimidazol-2-one]	100 to 1000 nM	D (pIC50≤6)		
Cc1cccc2c1n(-c1ccc(-c3cncc4c3cnn4C)nc1)c(=O)n2CC(=O)NCC(F)(F)F [Example 50, 2-[4-methyl-3-[6-(1-methylpyrazolo[3,4-c]pyridin-4-yl)-3-pyridyl]-2-oxo-benzimidazol-1-yl]-N-(2,2,2-trifluoroethyl)acetamide]			10 to 100 nM	A (pIC50>8)
Cc1cccc2c1n(-c1ccc(-c3cncc4c3cnn4C)cn1)c(=O)n2CC(=O)N[C@@H](C)C(F)(F)F [Example 57, 2-[4-methyl-3-[5-(1-methylpyrazolo[3,4-c]pyridin-4-yl)-2-pyridyl]-2-oxo-benzimidazol-1-yl]-N-[(1S)-2,2,2-trifluoro-1-methyl-ethyl]acetamide]		C (7≥pIC50>6)		A (pIC50>8)
Cc1cccc2c1n(-c1ccc(-c3cncc4c3cnn4C)nc1)c(=O)n2CC(=O)N1CCO[C@H](C(F)(F)F)C1 [Example 54, 4-methyl-3-[6-(1-methylpyrazolo[3,4-c]pyridin-4-yl)-3-pyridyl]-1-[2-oxo-2-[(2S)-2-(trifluoromethyl)morpholin-4-yl]ethyl]benzimidazol-2-one]			10 to 100 nM	A (pIC50>8)
Cc1cc(-c2cncc3c2cnn3C)ccc1-n1c(=O)n(CC(=O)N[C@@H](C)C(F)(F)F)c2cccc(Cl)c21 [Example 84, 2-[4-chloro-3-[2-methyl-4-(1-methylpyrazolo[3,4-c]pyridin-4-yl)phenyl]-2-oxo-benzimidazol-1-yl]-N-[(1S)-2,2,2-trifluoro-1-methyl-ethyl]acetamide]			10 to 100 nM	A (pIC50>8)

Reference: patent publication US20260055102A1 (Redx Pharma Limited, priority 2022, published 2026)
